Results taken from article PMC4554999 (Bioorganic & medicinal chemistry, 2015).
pKi: −log10 of the molar value. Where two headings read alike, the source gives them in different places.

Assays:
α4β2*-nAChRs = α4β2*-nAChRs (Rattus norvegicus, UniProt P09483+P12390); assay: biochemical; type: binding
[1] = tested on: nicotine-induced antinociception; assay: Antagonism of nicotine-induced antinociception, tail-flick test; type: in vivo, mouse; conditions: mice
mice [2] = conditions: ref [5]; cited from earlier work
mice [3] = conditions: agonist antinociception, ref [5]; cited from earlier work
mice [4] = conditions: agonist antinociception, ref [5]; cited from earlier work; remark: listed apart in the source
mice [5] = conditions: Table 1, head line above prints AD50 (μg/kg), ref [5]; cited from earlier work
rat α3β4-nAChR = rat α3β4-nAChR (Rattus norvegicus, UniProt P04757+P12392); assay: Electrophysiology; type: cell-based; conditions: 100 μM compound; rat receptor in Xenopus oocytes
rat α7-nAChR [6] = target: T1, rat α7-nAChR (Rattus norvegicus, UniProt Q05941); type: cell-based
rat α7-nAChR [7] = target: T1, rat α7-nAChR; assay: cell-based; conditions: read-out: antagonist activity at α7-nAChRs, % inhibition

T1 sequence (Q05941 23-502): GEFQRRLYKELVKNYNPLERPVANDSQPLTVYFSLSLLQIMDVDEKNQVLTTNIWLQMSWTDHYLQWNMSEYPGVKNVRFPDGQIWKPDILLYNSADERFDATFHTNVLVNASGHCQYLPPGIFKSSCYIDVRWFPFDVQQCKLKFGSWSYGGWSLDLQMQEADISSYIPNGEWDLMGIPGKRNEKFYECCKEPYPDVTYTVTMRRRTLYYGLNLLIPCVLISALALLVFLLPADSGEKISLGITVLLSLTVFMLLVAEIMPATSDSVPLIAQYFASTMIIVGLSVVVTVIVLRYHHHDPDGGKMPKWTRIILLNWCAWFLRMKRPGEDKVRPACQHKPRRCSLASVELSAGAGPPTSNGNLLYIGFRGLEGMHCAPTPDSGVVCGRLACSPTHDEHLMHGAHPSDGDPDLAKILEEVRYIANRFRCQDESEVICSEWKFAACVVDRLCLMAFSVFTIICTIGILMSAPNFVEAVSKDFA
rat α3β4-nAChR, sequence (P04757 26-499): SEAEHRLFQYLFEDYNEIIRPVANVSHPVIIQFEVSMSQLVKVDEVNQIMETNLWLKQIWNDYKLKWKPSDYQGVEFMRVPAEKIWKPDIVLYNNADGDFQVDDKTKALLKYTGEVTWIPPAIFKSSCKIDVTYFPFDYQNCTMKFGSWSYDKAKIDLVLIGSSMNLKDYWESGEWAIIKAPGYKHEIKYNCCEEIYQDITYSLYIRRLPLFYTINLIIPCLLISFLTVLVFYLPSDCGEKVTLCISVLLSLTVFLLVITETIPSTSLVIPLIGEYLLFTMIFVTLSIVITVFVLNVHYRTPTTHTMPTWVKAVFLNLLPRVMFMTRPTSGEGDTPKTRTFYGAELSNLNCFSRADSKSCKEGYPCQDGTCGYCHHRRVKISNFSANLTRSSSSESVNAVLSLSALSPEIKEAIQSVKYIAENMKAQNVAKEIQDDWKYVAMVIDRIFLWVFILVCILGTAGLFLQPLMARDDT
rat α3β4-nAChR, sequence (P12392 21-495): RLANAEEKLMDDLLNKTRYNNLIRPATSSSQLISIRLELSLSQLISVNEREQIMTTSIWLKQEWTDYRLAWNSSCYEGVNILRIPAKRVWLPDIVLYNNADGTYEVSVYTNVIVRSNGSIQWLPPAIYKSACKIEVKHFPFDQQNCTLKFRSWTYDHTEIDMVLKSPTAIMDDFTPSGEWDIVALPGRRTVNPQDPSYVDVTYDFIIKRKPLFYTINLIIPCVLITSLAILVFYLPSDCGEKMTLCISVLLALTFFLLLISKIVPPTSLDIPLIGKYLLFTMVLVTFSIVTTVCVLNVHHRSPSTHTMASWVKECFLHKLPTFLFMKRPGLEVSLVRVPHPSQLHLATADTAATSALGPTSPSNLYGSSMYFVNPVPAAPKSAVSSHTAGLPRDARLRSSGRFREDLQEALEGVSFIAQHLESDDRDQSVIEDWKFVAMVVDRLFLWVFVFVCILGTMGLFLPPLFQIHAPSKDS
α4β2*-nAChRs, sequence (P09483 31-630): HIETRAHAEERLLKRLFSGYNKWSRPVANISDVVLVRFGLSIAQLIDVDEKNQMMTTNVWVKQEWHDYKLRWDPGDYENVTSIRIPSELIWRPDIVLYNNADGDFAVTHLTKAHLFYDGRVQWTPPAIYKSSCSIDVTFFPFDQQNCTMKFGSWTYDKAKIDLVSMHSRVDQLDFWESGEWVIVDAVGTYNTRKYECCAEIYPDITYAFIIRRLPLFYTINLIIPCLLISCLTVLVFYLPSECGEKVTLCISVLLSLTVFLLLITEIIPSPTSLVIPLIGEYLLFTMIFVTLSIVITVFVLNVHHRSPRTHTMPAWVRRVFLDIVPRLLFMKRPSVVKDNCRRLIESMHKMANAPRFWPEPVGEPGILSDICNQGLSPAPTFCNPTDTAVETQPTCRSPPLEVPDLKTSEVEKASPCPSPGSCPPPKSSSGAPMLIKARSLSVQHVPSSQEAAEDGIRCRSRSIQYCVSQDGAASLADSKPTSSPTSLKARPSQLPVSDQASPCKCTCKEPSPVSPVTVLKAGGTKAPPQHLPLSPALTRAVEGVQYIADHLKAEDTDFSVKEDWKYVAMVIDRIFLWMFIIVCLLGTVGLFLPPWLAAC
α4β2*-nAChRs, sequence (P12390 25-500): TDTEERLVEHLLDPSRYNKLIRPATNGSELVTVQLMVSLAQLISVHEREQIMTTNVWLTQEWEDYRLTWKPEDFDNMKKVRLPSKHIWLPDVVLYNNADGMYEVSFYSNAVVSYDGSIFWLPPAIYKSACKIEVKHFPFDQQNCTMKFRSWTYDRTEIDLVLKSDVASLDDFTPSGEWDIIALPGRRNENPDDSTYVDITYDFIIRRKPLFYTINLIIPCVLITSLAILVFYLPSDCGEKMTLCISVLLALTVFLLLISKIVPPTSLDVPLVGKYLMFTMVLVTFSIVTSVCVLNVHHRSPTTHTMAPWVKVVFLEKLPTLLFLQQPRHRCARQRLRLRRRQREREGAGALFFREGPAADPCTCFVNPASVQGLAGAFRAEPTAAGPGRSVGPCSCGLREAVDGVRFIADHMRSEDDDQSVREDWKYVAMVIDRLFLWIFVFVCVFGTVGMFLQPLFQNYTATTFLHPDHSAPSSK

## c1cncc(-c2cncc([C@H]3C[C@H]4CC[C@H]3N4)c2)c1 [Compound 6a, 2-exo-[3′-(Pyridin-3″-yl)-5′-pyridnyl]-7-azabicyclo[2.2.1]heptane]
α4β2*-nAChRs
  pKi: 9.92
[1]
  AD50 Tail-Flick: 0.68 (0.11–4) μg/kg

## CN1CCC[C@H]1c1cccnc1 [nicotine]
Mice [2]
  ED50 Hypothermia: 1.0 (0.6–2.1) mg/kg
Mice [3]
  ED50 Tail-Flick: 1.3 (0.5–1.8) mg/kg
Mice [4]
  ED50 Hot-Plate: 0.65 (0.25–0.85) mg/kg
Mice [5]
  ED50 Spontaneous Activity: 0.5 (0.15–0.78) μg/kg

## c1cc(-c2cncc([C@H]3C[C@H]4CC[C@H]3N4)c2)ccn1 [Compound 5a, 2-exo-[3′-(Pyridin-4-yl)-5′-pyridnyl]-7-azabicyclo[2.2.1]heptane]
[1]
  AD50 Tail-Flick: 39 (4–63) μg/kg

## Nc1cc(-c2cncc([C@H]3C[C@H]4CC[C@H]3N4)c2)ccn1 [Compound 5d, 2-exo-[3′-(2-Aminopyridin-4-yl)-5′-pyridnyl]-7-azabicyclo[2.2.1]heptane]
[1]
  AD50 Tail-Flick: 1 (0.13–1.4) μg/kg
Rat α3β4-nAChR
  Agonist Activity (% of max ACh at 100 μM) α3β4: little or no agonist activity

## Clc1cc(-c2cncc([C@H]3C[C@H]4CC[C@H]3N4)c2)ccn1 [Compound 5c, 2-exo-[3′-(2-Chloropyridin-4-yl)-5′-pyridnyl]-7-azabicyclo[2.2.1]heptane]
[1]
  AD50 Tail-Flick: 110 (20–645) μg/kg

## Nc1ccc(-c2cncc([C@H]3C[C@H]4CC[C@H]3N4)c2)cn1 [Compound 6d, 2-exo-[3′-(2″-Aminopyridin-5″-yl)-5′-pyridnyl]-7-azabicyclo[2.2.1]heptane]
[1]
  AD50 Tail-Flick: 1.5 (0.5–4.1) μg/kg
Rat α3β4-nAChR
  Agonist Activity (% of max ACh at 100 μM) α3β4: little or no agonist activity

## COc1ccc(-c2cncc([C@H]3C[C@H]4CC[C@H]3N4)c2)cn1 [Compound 6e, 2-exo-[3′-(2″-Methoxypyridin-5″-yl)-5′-pyridnyl]-7-azabicyclo[2.2.1]heptane]
Rat α7-nAChR [6]; 100 μM compound, rat receptor in Xenopus oocytes
  Agonist Activity (% of max ACh at 100 μM) α7: little or no agonist activity
Rat α7-nAChR [7]
  inhibition at 100 µM: > 80%
[1]
  AD50 Tail-Flick: 0.5 (0.05–4.7) μg/kg

## COc1cc(-c2cncc([C@H]3C[C@H]4CC[C@H]3N4)c2)ccn1 [Compound 5e, 2-exo-[3′-(2-Methoxypyridin-4-yl)-5′-pyridnyl]-7-azabicyclo[2.2.1]heptane]
[1]
  AD50 Tail-Flick: 0.3 (0.04–20) μg/kg

## Clc1ccc(-c2cncc([C@H]3C[C@H]4CC[C@H]3N4)c2)cn1 [Compound 6c, 2-exo-[3′-(2″-Chloropyridin-5″-yl)-5′-pyridnyl]-7-azabicyclo[2.2.1]heptane]
[1]
  AD50 Tail-Flick: 0.5 (0.05–4.7) μg/kg

## Fc1ccc(-c2cncc([C@H]3C[C@H]4CC[C@H]3N4)c2)cn1 [Compound 6b, 2-exo-[3′-(2″-Fluoropyridin-5″-yl)-5′-pyridnyl]-7-azabicyclo[2.2.1]heptane]
Rat α7-nAChR [6]
  Agonist Activity (% of max ACh at 100 μM) α7: little or no agonist activity
